A word on the IC50: it is the concentration needed to halve the response being measured. The term EC50 denotes the midpoint of the concentration-response curve.

This note sets out measurements from ChEMBL document CHEMBL1201862, “PubChem BioAssay data set” (2004).

The source made the active and inactive calls.

One test addresses Large T antigen (Simian virus 40, UniProt P03070). The test is classed as functional, Betapolyomavirus macacae.
Test [1] deals with C-C chemokine receptor type 6 (Homo sapiens, UniProt P51684). Nature of the test: antagonism of CCR6 beta-arrestin recruitment – cell-based, luminescent beta-arrestin readout, dose response (AID 504728). The test is classed as functional. A general note: Recruitment of arrestin is a read-out of receptor activation apart from second messengers.
C-C chemokine receptor type 6, sequence (P51684 whole entry): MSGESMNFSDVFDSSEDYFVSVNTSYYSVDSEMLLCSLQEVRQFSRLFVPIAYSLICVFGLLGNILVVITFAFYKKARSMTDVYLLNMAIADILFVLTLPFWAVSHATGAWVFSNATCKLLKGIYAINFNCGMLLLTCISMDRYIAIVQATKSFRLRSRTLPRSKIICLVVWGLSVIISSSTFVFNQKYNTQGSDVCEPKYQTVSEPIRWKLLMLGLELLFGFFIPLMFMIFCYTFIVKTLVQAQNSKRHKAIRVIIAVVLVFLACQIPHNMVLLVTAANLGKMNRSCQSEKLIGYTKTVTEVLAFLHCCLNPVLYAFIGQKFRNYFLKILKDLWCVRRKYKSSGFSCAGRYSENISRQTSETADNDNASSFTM
A further test addresses Beta-galactosidase (Escherichia coli, UniProt Q8VNN2). Nature of the test: detection-enzyme interference by beta-gal modulators – biochemical, E. coli enzyme, set 3, artefact control for CCR6 antagonist project, dose response (AID 504712). Type of test: functional.
For test [2], the target named is T1, High affinity choline transporter 1 (Homo sapiens, UniProt Q9GZV3).
T1 sequence (Q9GZV3 whole entry): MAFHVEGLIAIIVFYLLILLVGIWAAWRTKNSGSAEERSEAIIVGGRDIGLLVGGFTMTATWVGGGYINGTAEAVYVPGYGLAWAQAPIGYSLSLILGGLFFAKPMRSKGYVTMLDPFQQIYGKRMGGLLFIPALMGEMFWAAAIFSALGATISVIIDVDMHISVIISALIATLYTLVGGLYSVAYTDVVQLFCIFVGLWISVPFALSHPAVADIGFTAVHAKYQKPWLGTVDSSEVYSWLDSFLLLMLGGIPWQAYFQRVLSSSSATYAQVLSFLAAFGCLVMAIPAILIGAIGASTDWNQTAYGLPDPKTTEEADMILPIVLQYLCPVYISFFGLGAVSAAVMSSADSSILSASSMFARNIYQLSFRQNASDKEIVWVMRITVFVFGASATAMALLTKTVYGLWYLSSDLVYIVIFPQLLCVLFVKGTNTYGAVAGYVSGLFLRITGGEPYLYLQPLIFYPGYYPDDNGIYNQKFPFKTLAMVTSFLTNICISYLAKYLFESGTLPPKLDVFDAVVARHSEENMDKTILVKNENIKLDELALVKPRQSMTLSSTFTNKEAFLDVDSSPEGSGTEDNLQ
Nature of the test: human choline transporter blockers, potency – cell-based, 5-point CRC, membrane potential dye, dose response (AID 504840). Type of test: functional.

The target in a further test is NS3 (Hepatitis C virus, UniProt A3EZJ3). Nature of the test: PubChem AID 2173. On the set-up: species or system Hepacivirus hominis.
Test [3] has as its target Heat shock protein HSP 90-alpha (Homo sapiens, UniProt P07900). Type of test: functional, organism-based.
The nature of test [4]: alpha-synuclein stem-loop luciferase translation blockers – H4 neuroglioma cells, luminescence, confirmation (AID 1988). The test is classed as functional, cell-based.
The nature of a further test: cells. Type of test: functional, cell-based.
Test [5] is described as follows: alpha-synuclein stem-loop translation blockers – luminescence, H4 neuroglioblastoma cells, dose confirmation, confirmation (AID 2454).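 Also: H4 neuroglioblastoma cells carrying an alpha-synuclein 5'UTR luciferase reporter; potency for inhibition of the luciferase signal.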 The test is classed as functional, cell-based.
Test [6] can be described thus: Luminescence Cell-Based Dose Response HTS to Identify Inhibitors of 5'UTR Stem-Loop Driven Prion Protein mRNA Translation in H4 Neuroglioblastoma Cells. [Related pubchem assays: 1827 (Project Summary), 1813 (Primary HTS)]. Type of test: functional.
Test [7] can be described thus: luciferase reporter signal reduction – luminescence, H4-C neuroglioblastoma cells, dose response (AID 2458).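 Also: H4 neuroglioblastoma cells stably carrying a luciferase reporter gene fusion.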 Type of test: functional, cell-based. (In a reporter assay the amount or activity of a reporter protein is the signal.)
Test [8] is described as follows: luciferase reporter signal suppression in cells – H4 neuroglioma cells, luminescence, dose response (AID 1990). The test is classed as functional, cell-based.
The test system of test [9] is Streptococcus sp. 'group A'. Nature of the test: Streptococcus pyogenes SK(-)GAS viability under kanamycin – luminescence, BacTiterGlo, confirmation, counter-screen for streptokinase expression inhibitor project, dose response (AID 1900). Type of test: functional, organism-based.
The target of a further test is T2, Streptokinase A (Streptococcus pyogenes serotype M1, UniProt P10520).
T2 sequence (P10520 whole entry): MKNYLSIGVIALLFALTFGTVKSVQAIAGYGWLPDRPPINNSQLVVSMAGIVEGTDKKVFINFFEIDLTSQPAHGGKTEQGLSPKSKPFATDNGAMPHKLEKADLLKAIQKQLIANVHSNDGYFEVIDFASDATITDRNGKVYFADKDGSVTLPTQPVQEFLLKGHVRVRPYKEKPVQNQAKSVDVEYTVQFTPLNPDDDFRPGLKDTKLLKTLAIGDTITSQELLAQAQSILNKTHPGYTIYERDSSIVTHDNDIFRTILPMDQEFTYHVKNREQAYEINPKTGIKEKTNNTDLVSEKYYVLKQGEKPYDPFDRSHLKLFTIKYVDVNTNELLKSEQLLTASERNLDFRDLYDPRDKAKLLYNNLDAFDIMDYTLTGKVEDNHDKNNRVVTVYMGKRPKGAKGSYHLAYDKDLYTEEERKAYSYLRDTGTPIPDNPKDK
Nature of the test: viability-normalized secreted streptokinase activity reduction – plasminogen activation absorbance, OD405, dose response (AID 1914).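 Also: secreted streptokinase activity via plasminogen activation per viability signal from cell pellet.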 The test is classed as functional, Streptococcus pyogenes M1 GAS.

A further test deals with Streptococcus. Nature of the test: GAS UMAA2166 growth inhibition – luminescence, BacTiterGlo, counter-screen for streptokinase expression inhibitor project, dose response (AID 1915).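 Also: potency for reduction of bacterial viability or growth.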 Type of test: functional, organism-based.
Test [10] is described as follows: antiviral protection against BTV-induced cell death – arbovirus, BSR cells, confirmation (AID 1250).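 Also: protection from viral cytopathic effect measured as cell viability by ATP luminescence.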 The test is classed as functional.
Test [11] can be described thus: Luminescence Cell-Based Dose Retest to Confirm Inhibitors of Cancer Stem Cells. [Related pubchem assays (depositor defined):AID2717, AID2721]. The note with it: Homo sapiens. Type of test: functional.
Test [12] concerns the target G2/mitotic-specific cyclin-B1 (Homo sapiens, UniProt P14635). Nature of the test: Counterscreen assay for inhibitors of Wee1 degradation: dose response cell-based assay to identify inhibitors of cyclin B degradation. [Related pubchem assays: 1410, 1321 ]. The test is classed as functional. On the technique in general: Counterscreens check selectivity or assay interference.

Another test concerns the target Wee1-like protein kinase (Homo sapiens, UniProt P30291). Nature of the test: Dose Response Cell-based Assay for Inhibitors of Wee1 Degradation. [Related pubchem assays: 1410, 1321 ]. The test is classed as functional.
For test [13], the target named is T3, Eukaryotic translation initiation factor 2-alpha kinase 3 (Homo sapiens, UniProt Q9NZJ5). Nature of the test: Dose response cell-based high-throughput screening assay to measure PERK inhibition. [Related pubchem assays: 1416 ]. Type of test: functional.
T3 sequence (Q9NZJ5 whole entry): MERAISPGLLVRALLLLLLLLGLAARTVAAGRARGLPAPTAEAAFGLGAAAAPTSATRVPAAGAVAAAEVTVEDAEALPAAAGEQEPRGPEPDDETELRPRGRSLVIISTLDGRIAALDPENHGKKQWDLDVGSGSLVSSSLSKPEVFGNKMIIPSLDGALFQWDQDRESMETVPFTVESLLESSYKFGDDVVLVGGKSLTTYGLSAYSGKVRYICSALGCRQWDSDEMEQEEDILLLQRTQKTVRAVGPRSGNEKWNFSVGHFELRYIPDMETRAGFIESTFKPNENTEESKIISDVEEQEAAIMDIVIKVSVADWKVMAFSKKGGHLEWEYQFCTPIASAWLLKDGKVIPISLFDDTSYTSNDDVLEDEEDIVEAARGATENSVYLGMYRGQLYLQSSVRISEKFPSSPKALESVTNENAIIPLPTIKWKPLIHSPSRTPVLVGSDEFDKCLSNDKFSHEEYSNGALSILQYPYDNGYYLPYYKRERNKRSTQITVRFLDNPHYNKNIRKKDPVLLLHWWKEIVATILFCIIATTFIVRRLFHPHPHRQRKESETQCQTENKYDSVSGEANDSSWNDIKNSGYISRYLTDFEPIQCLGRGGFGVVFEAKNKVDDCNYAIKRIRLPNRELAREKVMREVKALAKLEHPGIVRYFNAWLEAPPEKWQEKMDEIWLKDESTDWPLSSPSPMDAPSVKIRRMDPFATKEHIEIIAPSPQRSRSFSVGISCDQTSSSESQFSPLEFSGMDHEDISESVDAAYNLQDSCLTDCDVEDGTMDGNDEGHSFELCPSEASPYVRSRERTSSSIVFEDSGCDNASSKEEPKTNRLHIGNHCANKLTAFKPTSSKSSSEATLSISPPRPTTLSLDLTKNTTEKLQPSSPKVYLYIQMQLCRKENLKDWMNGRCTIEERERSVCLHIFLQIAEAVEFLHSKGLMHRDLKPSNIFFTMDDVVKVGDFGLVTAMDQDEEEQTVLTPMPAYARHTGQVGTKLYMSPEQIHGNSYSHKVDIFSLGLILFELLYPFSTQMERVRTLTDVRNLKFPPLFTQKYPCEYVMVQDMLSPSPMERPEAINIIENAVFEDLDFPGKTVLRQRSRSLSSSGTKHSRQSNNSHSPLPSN
In test [14] the target is T3, Eukaryotic translation initiation factor 2-alpha kinase 3. Nature of the test: Counterscreen assay for PERK inhibitors: Dose response cell-based high throughput screening assay to measure inhibition of PERK at 6 hours. [Related pubchem assays: 1522, 1416 ]. Type of test: functional.
The next test addresses Cytochrome P450 2D6 (Homo sapiens, UniProt P10635). Nature of the test: qHTS Assay for Inhibitors and Substrates of Cytochrome P450 2D6. [Related pubchem assays: 410 ]. The test is classed as ADME. The note with it: read-out: Potency.
The next test relates to HT-1080. Nature of the test: HT1080 cell viability loss – fluorescence readout (AID 620). The test is classed as functional, cell-based. The note with it: Homo sapiens.
Test [15] concerns the target Luciferin 4-monooxygenase (Photinus pyralis, UniProt P08659). Nature of the test: Counter Screen for Luciferase-based Assay Positives. [Related pubchem assays: 620, 618, 411 ].
Test [16] deals with Mothers against decapentaplegic homolog 3 (Homo sapiens, UniProt P84022). Nature of the test: blockers of Smad3 complex formation in lysate – cell lysate, secondary confirmation, chemiluminescent ELISA, HEK293 lysate, dose response (AID 1058). The test is classed as functional.
Mothers against decapentaplegic homolog 3, sequence (P84022 whole entry): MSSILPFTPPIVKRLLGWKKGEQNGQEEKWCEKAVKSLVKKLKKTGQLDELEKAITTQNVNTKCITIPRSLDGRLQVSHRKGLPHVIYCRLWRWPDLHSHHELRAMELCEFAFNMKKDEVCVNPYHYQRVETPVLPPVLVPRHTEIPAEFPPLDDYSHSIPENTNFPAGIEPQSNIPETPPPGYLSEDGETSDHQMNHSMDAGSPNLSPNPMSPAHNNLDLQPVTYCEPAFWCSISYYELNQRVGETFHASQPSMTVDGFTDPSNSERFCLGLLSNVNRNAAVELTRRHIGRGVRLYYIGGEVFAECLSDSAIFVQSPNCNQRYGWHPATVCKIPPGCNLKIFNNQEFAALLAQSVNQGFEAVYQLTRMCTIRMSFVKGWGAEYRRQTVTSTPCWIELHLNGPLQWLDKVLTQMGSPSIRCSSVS
In the next test the target is Aspartyl aminopeptidase (Plasmodium falciparum 3D7, UniProt Q8I2J3).
Test [17] has as its target T4, Rac GTPase-activating protein 1 (Homo sapiens, UniProt Q9H0H5).
T4 sequence (Q9H0H5 whole entry): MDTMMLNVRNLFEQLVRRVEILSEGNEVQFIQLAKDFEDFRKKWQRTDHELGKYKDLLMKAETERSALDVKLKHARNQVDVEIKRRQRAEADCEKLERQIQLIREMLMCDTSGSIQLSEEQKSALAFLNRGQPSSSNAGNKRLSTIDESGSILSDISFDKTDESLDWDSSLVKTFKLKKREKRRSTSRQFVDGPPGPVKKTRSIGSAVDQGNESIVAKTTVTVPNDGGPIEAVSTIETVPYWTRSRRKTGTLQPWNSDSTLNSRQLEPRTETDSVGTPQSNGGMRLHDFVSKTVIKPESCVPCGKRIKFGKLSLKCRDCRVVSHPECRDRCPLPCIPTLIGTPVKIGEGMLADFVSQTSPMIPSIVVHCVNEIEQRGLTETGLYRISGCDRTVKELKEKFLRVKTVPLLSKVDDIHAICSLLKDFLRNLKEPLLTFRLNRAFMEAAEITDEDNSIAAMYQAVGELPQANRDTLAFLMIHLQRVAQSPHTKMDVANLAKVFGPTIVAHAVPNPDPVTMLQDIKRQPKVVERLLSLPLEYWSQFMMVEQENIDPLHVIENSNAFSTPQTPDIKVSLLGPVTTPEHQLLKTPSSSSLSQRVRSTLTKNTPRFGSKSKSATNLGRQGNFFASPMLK
Nature of the test: blockers of MgcRacGAP-driven Rac1 GTP hydrolysis – biochemical, ADP Hunter fluorescence, primary and confirmatory, confirmation (AID 624330). The test is classed as functional.

The target of test [18] is Dual specificity tyrosine-phosphorylation-regulated kinase 1A (Rattus norvegicus, UniProt Q63470). The test is classed as biochemical, Homo sapiens.
In a further test the target is Procathepsin L (Homo sapiens, UniProt P07711).
Test [19] has as its target Lysosomal acid glucosylceramidase (Homo sapiens, UniProt P04062). Nature of the test: Dose response cell-based high throughput screening assay to identify enhancers of beta-glucosidase activity. [Related pubchem assays: 784 ]. Type of test: functional.

Cytochrome P450 2D6, sequence (P10635 whole entry): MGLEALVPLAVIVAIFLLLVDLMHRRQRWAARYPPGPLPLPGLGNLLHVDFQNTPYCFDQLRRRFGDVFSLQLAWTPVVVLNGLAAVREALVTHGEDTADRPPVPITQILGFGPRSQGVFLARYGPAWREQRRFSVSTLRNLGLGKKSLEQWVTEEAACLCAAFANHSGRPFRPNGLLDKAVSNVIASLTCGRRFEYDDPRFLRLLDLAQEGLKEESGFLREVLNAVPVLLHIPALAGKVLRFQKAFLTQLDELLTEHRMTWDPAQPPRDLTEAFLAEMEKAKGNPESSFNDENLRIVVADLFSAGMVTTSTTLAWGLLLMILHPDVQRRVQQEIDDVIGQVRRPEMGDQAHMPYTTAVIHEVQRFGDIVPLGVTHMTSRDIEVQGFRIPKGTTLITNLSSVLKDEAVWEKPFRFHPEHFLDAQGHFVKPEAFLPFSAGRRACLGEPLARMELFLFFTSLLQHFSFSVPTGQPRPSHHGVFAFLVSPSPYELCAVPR
Wee1-like protein kinase, sequence (P30291 whole entry): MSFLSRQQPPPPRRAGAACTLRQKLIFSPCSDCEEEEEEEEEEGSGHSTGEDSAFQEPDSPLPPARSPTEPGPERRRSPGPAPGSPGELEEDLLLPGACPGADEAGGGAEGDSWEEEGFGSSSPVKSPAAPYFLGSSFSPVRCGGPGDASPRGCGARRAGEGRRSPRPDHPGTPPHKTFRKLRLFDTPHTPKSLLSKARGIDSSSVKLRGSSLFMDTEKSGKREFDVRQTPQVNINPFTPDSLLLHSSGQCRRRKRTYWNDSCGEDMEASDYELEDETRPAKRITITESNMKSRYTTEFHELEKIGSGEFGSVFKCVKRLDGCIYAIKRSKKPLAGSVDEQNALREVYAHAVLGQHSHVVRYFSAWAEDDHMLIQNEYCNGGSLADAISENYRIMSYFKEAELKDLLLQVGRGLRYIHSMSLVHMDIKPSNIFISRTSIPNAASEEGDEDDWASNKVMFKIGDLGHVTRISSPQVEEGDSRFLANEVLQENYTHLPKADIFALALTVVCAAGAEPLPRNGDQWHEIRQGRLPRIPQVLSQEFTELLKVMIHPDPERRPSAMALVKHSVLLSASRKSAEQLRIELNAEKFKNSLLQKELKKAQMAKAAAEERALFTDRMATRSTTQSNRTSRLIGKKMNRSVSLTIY
Large T antigen, sequence (P03070 whole entry): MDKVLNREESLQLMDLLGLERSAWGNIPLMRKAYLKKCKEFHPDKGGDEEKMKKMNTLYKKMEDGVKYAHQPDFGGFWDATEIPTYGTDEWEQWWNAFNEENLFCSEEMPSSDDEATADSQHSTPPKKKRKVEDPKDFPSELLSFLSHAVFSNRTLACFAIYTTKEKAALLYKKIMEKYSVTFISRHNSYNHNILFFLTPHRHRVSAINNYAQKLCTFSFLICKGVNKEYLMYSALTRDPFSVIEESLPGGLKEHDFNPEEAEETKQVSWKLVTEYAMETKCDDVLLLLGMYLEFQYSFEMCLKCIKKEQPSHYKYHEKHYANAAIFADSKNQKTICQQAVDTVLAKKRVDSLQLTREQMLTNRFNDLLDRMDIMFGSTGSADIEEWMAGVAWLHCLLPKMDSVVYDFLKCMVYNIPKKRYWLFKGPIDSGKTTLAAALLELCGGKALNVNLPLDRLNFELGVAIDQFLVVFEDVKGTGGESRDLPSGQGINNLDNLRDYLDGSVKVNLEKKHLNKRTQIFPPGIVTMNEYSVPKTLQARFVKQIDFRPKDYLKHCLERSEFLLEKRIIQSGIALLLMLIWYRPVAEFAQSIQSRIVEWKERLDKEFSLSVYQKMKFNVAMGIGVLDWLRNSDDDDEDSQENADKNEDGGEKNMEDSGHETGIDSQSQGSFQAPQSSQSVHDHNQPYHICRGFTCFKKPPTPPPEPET
Luciferin 4-monooxygenase, sequence (P08659 whole entry): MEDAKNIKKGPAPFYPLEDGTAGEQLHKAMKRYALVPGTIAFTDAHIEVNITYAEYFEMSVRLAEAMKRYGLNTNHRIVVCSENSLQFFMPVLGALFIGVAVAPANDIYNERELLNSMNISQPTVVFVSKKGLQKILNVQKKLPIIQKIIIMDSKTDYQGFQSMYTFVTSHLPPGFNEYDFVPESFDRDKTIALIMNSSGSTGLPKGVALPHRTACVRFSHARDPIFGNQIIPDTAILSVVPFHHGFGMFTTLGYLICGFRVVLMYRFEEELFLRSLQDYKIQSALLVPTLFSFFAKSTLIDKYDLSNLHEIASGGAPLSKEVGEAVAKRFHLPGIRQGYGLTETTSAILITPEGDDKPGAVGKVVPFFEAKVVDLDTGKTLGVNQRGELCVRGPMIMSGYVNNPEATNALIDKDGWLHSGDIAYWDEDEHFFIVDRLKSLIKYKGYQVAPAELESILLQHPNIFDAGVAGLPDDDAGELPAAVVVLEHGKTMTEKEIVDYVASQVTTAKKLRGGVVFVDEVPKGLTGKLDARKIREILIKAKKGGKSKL
Lysosomal acid glucosylceramidase, sequence (P04062 whole entry): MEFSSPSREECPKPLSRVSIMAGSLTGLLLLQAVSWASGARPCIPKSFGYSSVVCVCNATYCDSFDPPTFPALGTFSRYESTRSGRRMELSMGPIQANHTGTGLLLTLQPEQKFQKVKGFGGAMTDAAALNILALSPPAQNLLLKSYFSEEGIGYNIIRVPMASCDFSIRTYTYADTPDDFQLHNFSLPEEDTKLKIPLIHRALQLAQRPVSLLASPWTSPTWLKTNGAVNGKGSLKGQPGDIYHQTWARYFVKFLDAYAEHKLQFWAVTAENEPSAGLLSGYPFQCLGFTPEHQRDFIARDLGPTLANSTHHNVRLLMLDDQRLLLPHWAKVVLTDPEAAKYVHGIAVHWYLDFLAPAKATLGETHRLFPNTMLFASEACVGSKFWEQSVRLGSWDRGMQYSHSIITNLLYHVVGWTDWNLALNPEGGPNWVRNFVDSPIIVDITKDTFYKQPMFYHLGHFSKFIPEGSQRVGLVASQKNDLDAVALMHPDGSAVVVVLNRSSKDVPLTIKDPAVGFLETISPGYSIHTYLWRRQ

As to `O=[N+]([O-])c1cc(Cc2ccccc2)cc(/C=N/c2ccc(N3CCOCC3)cc2)c1O`, the IC50 on Large T antigen is 2.64 µM (active); in [1] it was > 66.6 µM (inactive); on Beta-galactosidase it was > 66.6 µM (inactive); in [2], 9.12 µM (active); on NS3 it was 7.65 µM (active). In addition, the AC50 in test [3] is 4.32 µM (active).
Take `CC(=O)O[C@@H]1/C=C/[C@](C)(O)C[C@@H](C)C/C=C/[C@H]2[C@H](O)C(C)=C(C)[C@H]3[C@H](Cc4ccccc4)NC(=O)[C@@]123`: the EC50 was < 0.1 µM (active) in test [4]; 0.895 µM (active) in “cells”; 0.397 µM (active) in [5]; 28.2 µM (active) in [6]; 0.577 µM (active) in test [7]; 0.208 µM (active) in [8].
`Cc1ccc(-c2csc3ncnc(NS(=O)(=O)c4ccc(Cl)cc4)c23)cc1`: the EC50 is 4.44 µM (active) in test [9], 16.2 µM (active) on Streptokinase A and 66.7 µM (active) in the test on Streptococcus. Further, in test [10], the IC50 is 35.5 µM (active). Further, in test [11], the AC50 is 9.42 µM (active).
Turning to `CCN(CC)S(=O)(=O)c1ccc(C(=O)NCCc2ccccn2)cc1`, the EC50 (in [12]; at Wee1-like protein kinase) was > 49.7 µM (not active) each time.
For the compound `Cc1c2cnn(-c3ccccc3)c(=O)c2c(C)n1CCCC(=O)NCCN1CCN(C)CC1`, the EC50 in test [13] and in test [14] was > 55.7 µM (not active) each time.
For the compound `COc1cccc(-c2oc3ccccc3c(=O)c2O)c1`, the AC50 on Cytochrome P450 2D6 is 31.6 µM (inconclusive).
Turning to `Cc1ccc(-c2nc3cc(N)ccc3o2)cc1`, the EC50 in the test with HT-1080 is > 50 µM (not active); in test [15], 4.68 µM (active).
Regarding `COc1cc(C(c2cc3c(cc2O)OCO3)N2CCOCC2)ccc1O` (stereo not given), in [16], the IC50 is listed as 10.1 µM (not active).
Turning to `Oc1ccc(-c2csc(-c3cccnc3)n2)cc1O`, the results for the IC50 (on Aspartyl aminopeptidase; in test [17]; at Procathepsin L) were 1.81 µM (active), 9.47 µM (active) and > 59.6 µM (not active), respectively. Also, the AC50 in [18] was 7.37 µM (active).
Consider `COC(=O)c1cn(NC(=O)c2ccncc2)c(=O)c2ccccc12`, for which, in test [19], the EC50 is recorded as > 50 µM (not active).
